# In PubChem BioAssay AID2046 (NMMLSC, 2009):
# Calls of active or inactive are those of the source. The rule behind the calls is not given here.
# Target: Ras-related protein Rab-2A (Canis lupus familiaris) (UniProt P61105)
# Test: Rab2 wildtype GTP-binding inhibitors, SAR follow-up, biochemical, additional analogs, bead-based flow cytometry, multiplex (AID 2046)
# Details: Rab2 wt
# Chain of Ras-related protein Rab-2A (Canis lupus familiaris) (P61105 whole entry, looked up): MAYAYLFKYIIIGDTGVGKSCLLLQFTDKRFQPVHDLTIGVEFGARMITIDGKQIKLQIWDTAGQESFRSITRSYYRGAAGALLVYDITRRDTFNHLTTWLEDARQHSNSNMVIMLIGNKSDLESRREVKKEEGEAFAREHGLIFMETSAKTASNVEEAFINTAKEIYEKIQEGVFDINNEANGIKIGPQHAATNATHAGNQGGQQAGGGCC
row,EC50,Compound
1,inactive,O=Nc1c(-c2c(O)[nH]c3c(Br)cccc23)[nH]c2ccccc12
2,inactive,O=C1C(c2c(O)[nH]c3ccc(Br)cc23)=Nc2ccccc21
3,inactive,O=Nc1c(-c2c(O)[nH]c3ccccc23)[nH]c2ccccc12
4,inactive,O=Nc1c(-c2c(O)[nH]c3ccc(Br)cc23)[nH]c2ccccc12
5,inactive,O=C1C(c2c(O)[nH]c3c(Cl)cccc23)=Nc2ccccc21
6,inactive,O=C1N=c2ccccc2=C1c1[nH]c(=O)[nH]c1O
7,inactive,O=C1C(c2c(O)[nH]c3c(F)cccc23)=Nc2ccccc21
8,inactive,O=C1C(c2c(O)[nH]c3ccccc23)=Nc2ccccc21
9,inactive,O=C1N=c2ccccc2=C1c1[nH]c(=S)[nH]c1O
10,inactive,O=C1C(c2c(O)[nH]c3c(Br)cccc23)=Nc2ccccc21
11,inactive,O=Nc1c(-c2c(O)[nH]c3c(Cl)cccc23)[nH]c2ccccc12
12,inactive,O=Nc1c(-c2c(O)[nH]c3c(F)cccc23)[nH]c2ccccc12

# Same assay, conditions: Rab2 wt, measured here: Ki from fitted EC50
row,Ki,Compound
1,4.19 µM,O=Nc1c(-c2c(O)[nH]c3c(Br)cccc23)[nH]c2ccccc12
2,4.15 µM,O=Nc1c(-c2c(O)[nH]c3ccc(Br)cc23)[nH]c2ccccc12
3,0.11 µM,COc1ccc2cc([C@@H](C)C(=O)O)ccc2c1
